Reference: PMC6838069, “Biochemical characterization and chemical validation of Leishmania MAP Kinase-3 as a potential drug target” (Scientific Reports, 2019)

Target: T1, LdMAPK3 (Leishmania donovani, UniProt A0A3S7WR45)
T1 construct: gene LdCL_100012100; pET-28a BamHI/HindIII, His6-tagged (~48 kDa on gel, tag not reported cut), E. coli BL21(DE3), Ni-NTA
T1 sequence (A0A3S7WR45 1-388): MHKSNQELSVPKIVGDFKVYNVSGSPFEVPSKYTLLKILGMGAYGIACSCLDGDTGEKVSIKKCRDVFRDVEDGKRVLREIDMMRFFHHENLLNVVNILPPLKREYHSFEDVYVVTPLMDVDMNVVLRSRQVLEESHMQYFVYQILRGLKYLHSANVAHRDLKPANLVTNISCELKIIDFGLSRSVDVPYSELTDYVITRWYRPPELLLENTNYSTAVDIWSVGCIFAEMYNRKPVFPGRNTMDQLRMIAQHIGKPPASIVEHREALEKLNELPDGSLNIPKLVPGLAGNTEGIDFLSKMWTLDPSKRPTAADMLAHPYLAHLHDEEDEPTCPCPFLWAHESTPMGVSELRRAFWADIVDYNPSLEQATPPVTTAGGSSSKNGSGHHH
Assay: Kinase-Glo Plus luminescent ATP depletion; Dixon plot
Format: biochemical

Row | SMILES | Ki [µM]
1 | O=c1cc(-c2ccccc2)oc2cc(O)cc(O)c12 [CHY, 5,7-dihydroxyflavone] | 8.75 ± 0.11
2 | O=c1c(-c2ccc(O)cc2)coc2cc(O)cc(O)c12 [GEN, genistein] | 3.76 ± 0.28
